Test results reported in patent US20260248784A1, “BTK Degrader and Use Thereof” (JIANGSU VCARE PHARMATECH CO., LTD., priority 2023, published 2026).

Each compound was assayed on mino cells (assay: Activity test in Mino cells (CCK8 proliferation inhibition)). Details: 3 days, read-out: Cell inhibition IC50.
Format: cell-based
Protocol: Cell culture: mino cells (culture conditions: RPMI1640 medium+15% FBS, 37° C., 5% CO2). Cell plating: The cells subcultured into the logarithmic growth phase were collected and transferred into a centrifuge tube, and centrifuged at 800 rpm for 5 min. The cells were resuspended in complete medium and counted. The cells were diluted and adjusted to a final concentration of 200000 cells/mL. The cells were then seeded into a 96-well plate with 100 μL per well. Cell administration: Each group of drug solutions was added into the 96-well plate, 100 μL per well, n=3 for each drug concentration. Meanwhile, negative wells (n=6) and blank wells (n=3) were set up. The 96-well plate was incubated in the incubator for further 3 days. CCK8 reagent was added to the 96-well plate, 20 μL per well, and then the plate was placed in the incubator for further 4 h. The absorbance of the solution was measured at a wavelength of 450 nm using an enzyme reader. The proliferation inhibition rate was calculated and the half inhibitory concentration IC50 value was calculated.

Row | SMILES | IC50
1 | COc1ccc(F)cc1C(=O)NCc1ccc(-c2nn(-c3ccc(N4CCN(CC5CCN(c6ccc(N7CCC(=O)NC7=O)c(C)c6)CC5)CC4)nc3)c3ncnc(N)c23)cc1C [Compound I-4] | 62 nM

Same assay, conditions: Homo sapiens, 72 h, 3 days, read-out: Cell inhibition IC50

Row | SMILES | IC50
2 | COc1ccc(F)cc1C(=O)NCc1ccc(-c2nn(-c3ccc(N4CCN(CC5CCN(c6ccc(N7CCC(=O)NC7=O)cc6)CC5)CC4)nc3)c3ncnc(N)c23)cc1 [Compound I-3, N-(4-(4-amino-1-(6-(4-((1-(4-(2,4-dioxotetrahydropyrimidin-1(2H)-yl)phenyl)piperidin-4-yl)methyl)piperazin-1-yl)pyridin-3-yl)-1H-pyrazolo[3,4-d]pyrimidin-3-yl)benzyl)-5-fluoro-2-methoxybenzamide] | 16 nM
3 | COc1ccc(F)cc1C(=O)NCc1ccc(-c2nn(-c3ccc(C4CCN(CC5CCN(c6ccc(N7CCC(=O)NC7=O)c(C)c6)CC5)CC4)cc3)c3ncnc(N)c23)cc1 [Compound I-5, N-(4-(4-amino-1-(4-(1-((1-(4-(2,4-dioxotetrahydropyrimidin-1(2H)-yl)-3-methylphenyl)piperidin-4-yl)methyl)piperidinyl)phenyl)-1H-pyrazolo[3,4-d]pyrimidin-3-yl)benzyl)-5-fluoro-2-methoxybenzamide] | 84 nM
4 | COc1ccc(F)cc1C(=O)NCc1ccc(-c2nn(-c3ccc(C4CCN(CC5CCN(c6ccc(N7CCC(=O)NC7=O)cc6)CC5)CC4)cc3)c3ncnc(N)c23)cc1 [Compound I-6, N-(4-(4-amino-1-(4-(1-((1-(4-(2,4-dioxotetrahydropyrimidin-1(2H)-yl)phenyl)piperidin-4-yl)methyl)piperidinyl)phenyl)-1H-pyrazolo[3,4-d]pyrimidin-3-yl)benzyl)-5-fluoro-2-methoxybenzamide] | 16 nM
5 | COc1ccc(F)cc1C(=O)NCc1ccc(-c2nn(-c3ccc(C4CCN(CC5CCN(c6ccc(N7CCC(=O)NC7=O)c(C)c6)CC5)CC4)nc3)c3ncnc(N)c23)cc1 [Compound I-7, N-(4-(4-amino-1-(6-(1-((1-(4-(2,4-dioxotetrahydropyrimidin-1(2H)-yl)-3-methylphenyl)piperidin-4-yl)methyl)piperidin-4-yl)pyridin-3-yl)-1H-pyrazolo[3,4-d]pyrimidin-3-yl)benzyl)-5-fluoro-2-methoxybenzamide] | < 50 nM
6 | COc1ccc(F)cc1C(=O)NCc1ccc(-c2nn(-c3ccc(N4CCN(CC5CCN(c6ccc(N7CCC(=O)NC7=O)c(C)c6)CC5)CC4)cc3)c(N)c2C(N)=O)cc1 [Compound I-8] | < 25 nM
7 | COc1ccc(F)cc1C(=O)NCc1ccc(-c2nn(-c3ccc(N4CCN(CC5CCN(c6ccc(N7CCC(=O)NC7=O)c(C)c6)CC5)CC4)cc3)c3ncnc(N)c23)cc1 [Compound I-9] | < 25 nM
8 | COc1ccc(F)cc1C(=O)NCc1ccc(-c2nn(-c3ccc(C4CCN(CC5CCN(c6ccc(N7CCC(=O)NC7=O)c(C)c6)CC5)CC4)cc3)c(N)c2C(N)=O)cc1 [Compound I-11, 5-amino-1-(4-(1-(1-(4-(2,4-dioxotetrahydropyrimidin-1(2H)-yl)-3-methylphenyl)piperidin-4-yl)methyl)piperidin-4-yl)phenyl)-3-(4-(((5-fluoro-2-methoxybenzamido)methyl)phenyl)-1H-pyrazole-4-carboxamide] | < 25 nM
9 | COc1ccc(F)cc1C(=O)NCc1ccc(-c2nn(-c3ccc(C4CCN(CC5CCN(c6ccc(N7CCC(=O)NC7=O)c(C)c6)CC5)CC4)nc3)c(N)c2C(N)=O)cc1 [Compound I-12] | < 25 nM
10 | COc1ccc(F)cc1C(=O)NCc1ccc(-c2nn(-c3ccc(C4CCN(CC5CCN(c6ccc(C7CCC(=O)NC7=O)cc6)CC5)CC4)nc3)c3ncnc(N)c23)cc1 (stereo not drawn) [Compound I-24] | < 100 nM
11 | COc1ccc(F)cc1C(=O)NCc1ccc(-c2nc(-c3ccc(N4CCN(CC5CCN(c6ccc(N7CCC(=O)NC7=O)c(C)c6)CC5)CC4)nc3)n3ccnc(N)c23)cc1 [Compound I-30] | < 50 nM
12 | COc1ccc(F)cc1C(=O)NCc1ccc(-c2nn(-c3ccc(N4CCN(CC5CCN(c6ccc(N7CCC(=O)NC7=O)c(C)c6)CC5)C[C@H]4C)nc3)c3ncnc(N)c23)cc1 [Compound I-41] | < 25 nM
13 | COc1ccc(F)cc1C(=O)NCc1ccc(-c2nn(-c3ccc(N4CCC(CN5CCN(c6ccc(N7CCC(=O)NC7=O)c(C)c6)CC5)CC4)cc3)c3ncnc(N)c23)cc1 [Compound I-42] | < 25 nM
14 | COc1ccc(F)cc1C(=O)NCc1ccc(-c2nn(-c3ccc(N4CCN(CC5CCN(c6ccc(N7CCC(=O)NC7=O)c(C)c6)CC5)CC4)nc3)c3ncnc(N)c23)c(F)c1F [Compound I-43] | < 50 nM
15 | COc1ccc(F)cc1C(=O)NCc1ccc(-c2nn(-c3ccc(C4CCN(CC5CCN(c6ccc(N7CCC(=O)NC7=O)c(C)c6)CC5)CC4)cc3)c3ncnc(N)c23)cc1F [Compound I-44, N-(4-(4-amino-1-(4-(1-((1-(4-(2,4-dioxotetrahydropyrimidin-1(2H)-yl)-3-methylphenyl)piperidin-4-yl)methyl)piperidinyl)phenyl)-1H-pyrazolo[3,4-d]pyrimidin-3-yl)-2-fluorobenzyl)-5-fluoro-2-methoxybenzamide] | < 25 nM
16 | COc1ccc(F)cc1C(=O)NCc1ccc(-c2nc(-c3ccc(N4CCN(CC5CCN(c6ccc(N7CCC(=O)NC7=O)c(C)c6)CC5)CC4)cc3)n3ccnc(N)c23)cc1F [Compound I-45] | < 50 nM
17 | COc1ccc(F)cc1C(=O)NCc1ccc(-c2nn(-c3ccc(N4CCN(CC5CCN(c6ccc(N7CCC(=O)NC7=O)c(C)c6)CC5)CC4)cc3)c3ccnc(N)c23)cc1 [Compound I-46] | < 100 nM
18 | COc1ccc(F)cc1C(=O)NCc1ccc(-c2nc(-c3ccc(N4CCN(CC5CCN(c6ccc(N7CCC(=O)NC7=O)c(C)c6)CC5)CC4)cc3)n3ccnc(N)c23)c(F)c1 [Compound I-47] | < 25 nM
19 | COc1ccc(F)cc1C(=O)NCc1ccc(-n2c(=O)n(-c3ccc(N4CCN(CC5CCN(c6ccc(N7CCC(=O)NC7=O)c(C)c6)CC5)CC4)cc3)c3ccnc(N)c32)cc1 [Compound I-48] | < 25 nM
20 | CCc1cc(-c2nc(-c3ccc(CNC(=O)c4cc(F)ccc4OC)cc3)c3c(N)nccn23)ccc1N1CCN(CC2CCN(c3ccc(N4CCC(=O)NC4=O)c(C)c3)CC2)CC1 [Compound I-49] | < 100 nM
21 | COc1ccc(F)cc1C(=O)NCc1ccc(-c2nc(-c3ccc(C4=CCN(CC5CCN(c6ccc(N7CCC(=O)NC7=O)c(C)c6)CC5)CC4)cc3)n3ccnc(N)c23)cc1 [Compound I-50] | < 25 nM
22 | COc1ccc(F)cc1C(=O)NCc1ccc(-c2nc(-c3ccc(N4CCN(CC5CCN(c6ccc(N7CCC(=O)NC7=O)c(C)c6)CC5)CC4)c(OC)c3)n3ccnc(N)c23)cc1 [Compound I-51] | < 25 nM
23 | COc1ccc(F)cc1C(=O)NCc1ccc(-n2c(=O)n(-c3ccc(N4CCN(CC5CCN(c6ccc(N7CCC(=O)NC7=O)c(C)c6)CC5)CC4)nc3)c3ccnc(N)c32)cc1 [Compound I-52, N-(4-(4-amino-1-(6-(4-((1-(4-(2,4-dioxotetrahydropyrimidin-1(2H)-yl)-3-methylphenyl)piperidin-4-yl)methyl)piperazin-1-yl)pyridin-3-yl)-2-oxo-1,2-dihydro-3H-imidazo[4,5-c]pyridin-3-yl)benzyl)-5-fluoro-2-methoxybenzamide] | < 50 nM
24 | COc1ccc(F)cc1C(=O)NCc1ccc(-c2nc(-c3ccc(N4CC5CC(C4)N5CC4CCN(c5ccc(N6CCC(=O)NC6=O)c(C)c5)CC4)cc3)n3ccnc(N)c23)cc1 [Compound I-53] | < 50 nM
25 | Cc1cc(N2CCC(CN3CCN(c4ccc(-c5nc(-c6ccc(Oc7ccccc7)cc6)c6c(N)nccn56)cn4)CC3)CC2)ccc1N1CCC(=O)NC1=O [Compound I-54, 1-(4-(4-((4-(5-(8-amino-1-(4-phenoxyphenyl)imidazo[1,5-a]pyrazin-3-yl)pyridin-2-yl)piperazin-1-yl)methyl)piperidin-1-yl)-2-methylphenyl)dihydropyrimidine-2,4(1H,3H)-dione] | < 50 nM
26 | Cc1cc(N2CCC(CN3CCN(c4ccc(-n5nc(-c6ccc(Oc7ccccc7)cc6)c6c(N)ncnc65)cc4)CC3)CC2)ccc1N1CCC(=O)NC1=O [Compound I-55] | < 100 nM
27 | COc1ccc(F)cc1C(=O)NCc1ccc(-c2nn(-c3ccc(N4CCN(CC5CCN(c6ccc7c(c6)CN(C6CCC(=O)NC6=O)C7=O)CC5)CC4)nc3)c3ncnc(N)c23)cc1 (stereo not drawn) [II-1] | 4 nM
28 | COc1ccc(F)cc1C(=O)NCc1ccc(-c2nn(-c3ccc(N4CCN(CC5CCN(c6ccc7c(c6)CN(C6CCC(=O)NC6=O)C7=O)CC5)CC4)nc3)c3ncnc(N)c23)cc1C (stereo not drawn) [II-2, N-(4-(4-amino-1-(6-(4-((1-(2-(2,6-dioxopiperidin-3-yl)-1-oxoisoindolin-5-yl)piperidin-4-yl)methyl)piperazin-1-yl)pyridin-3-yl)-1H-pyrazolo[3,4-d]pyrimidin-3-yl)-2-methylbenzyl)-5-fluoro-2-methoxybenzamide] | 17 nM
29 | COc1ccc(F)cc1C(=O)NCc1ccc(-c2nn(-c3ccc(N4CCN(CC5CCN(c6ccc7c(c6)C(=O)N(C6CCC(=O)NC6=O)C7=O)CC5)CC4)nc3)c3ncnc(N)c23)cc1 (stereo not drawn) [II-3, N-(4-4-amino-1-(6-(4-(1-(2,6-dioxopiperidin-3-yl)-1,3-dioxoisoindolin-5-ylpiperidin-4-yl)methylpiperazin-1-ylpyridin-3-yl)-1H-pyrazolo[3,4-d]pyrimidin-3-yl)benzyl)-5-fluoro-2-methoxybenzamide] | 17 nM
30 | COc1ccc(F)cc1C(=O)NCc1ccc(-c2nn(-c3ccc(N4CCC(CN5CCN(c6ccc7c(c6)C(=O)N(C6CCC(=O)NC6=O)C7)CC5)CC4)nc3)c3ncnc(N)c23)cc1 (stereo not drawn) [II-4, N-(4-(4-amino-1-(6-(4-((4-(2-(2,6-dioxopiperidin-3-yl)-3-oxoisoindolin-5-yl)piperazin-1-yl)methyl)piperidin-1-yl)pyridin-3-yl)-1H-pyrazolo[3,4-d]pyrimidin-3-yl)benzyl)-5-fluoro-2-methoxybenzamide] | 12 nM
